How the values were obtained:
[1] = target: T1, thrombin (Homo sapiens, UniProt P00734); experiment: Measurement of the thrombin inhibition in buffer; format: biochemical; conditions: human thrombin 0.06 nmol/l in Tris buffer pH 7.4, 22° C., substrate Boc-Asp(OBzl)-Pro-Arg-AMC; in some cases means of individual determinations
Protocol: To determine the thrombin inhibition of the substances listed above, a biochemical test system is constructed in which the conversion of a thrombin substrate is used for determining the enzymatic activity of human thrombin. Here, thrombin cleaves aminomethylcoumarin, which is measured fluorescently, from the peptic substrate. The determinations are carried out in microtitre plates.
Substances to be tested are dissolved in various concentrations in dimethyl sulphoxide and incubated for 15 min with human thrombin (0.06 nmol/l dissolved in 50 mmol/l of Tris buffer [C,C,C-tris(hydroxymethyl)aminomethane], 100 mmol/l of sodium chloride, 0.1% BSA [bovine serum albumin], pH 7.4) at 22° C. The substrate (5 μmol/l Boc-Asp(OBzl)-Pro-Arg-AMC from Bachem) is then added. After 30 min of incubation, the sample is excited at a wavelength of 360 nm and the emission is measured at 460 nm. The measured emissions of the test mixtures with test substance are compared to the control mixtures without test substance (only dimethyl sulphoxide instead of test substance in dimethyl sulphoxide) and IC50 values are calculated from the concentration/activity relationships. Representative activity data from this test are given in Table 1 below (in some cases as means of individual determinations): […]

[2] = target: T1, thrombin; experiment: Thrombin-inhibitory activity in plasma samples (ecarin-activated); format: biochemical; conditions: citrate plasma, ecarin activation, fluorogenic thrombin substrate; read at about 70% of maximum signal (about 12 min); in some cases means
Protocol: To determine the inhibition of thrombin in plasma samples, plasma prothrombinase is activated by ecarin. Thrombin activity and/or its inhibition by potential inhibitors is/are then measured fluorescently by addition of a substrate.
The substances to be tested are dissolved in various concentrations in dimethyl sulphoxide and diluted with water. In white 96-well flat-bottomed plates, 20 μl of substance dilution are mixed with 20 μl of ecarin solution (ecarin reagent, from Sigma E-0504, final concentration 20 mU per reaction) in Ca buffer (200 mM Hepes+560 mM sodium chloride+10 mM calcium chloride+0.4% PEG) or with 20 μl of Ca buffer (as unstimulated control). Furthermore, 20 μl of fluorogenic thrombin substrate (from Bachem 1-1120, final concentration 50 μmol/l) and 20 μl of citrate plasma (from Octapharma) are added, and the mixture is homogenized well. The plate is measured in a SpectraFluorplus Reader using a 360 nm excitation filter and a 465 nm emission filter every minute over 20 minutes. […] Representative activity data from this test are given in Table 2 below (in some cases as means of individual determinations): […]

Structure (SMILES)	IC50 [1]	IC50 [2]
COc1cc(C(=O)N2CC(C)OCC2C2CC(O)C2)cn2nc(NCc3cccc(Cl)c3)nc12 (single isomer, unassigned) [Example 3, {2-[(3-Chlorobenzyl)amino]-8-methoxy[1,2,4]triazolo[1,5-a]pyridin-6-yl}[5-(3-hydroxycyclobutyl)-2-methylmorpholin-4-yl]methanone]	70 nM	70 nM
COc1cc(C(=O)N2CC(C)OCC2C2CC(O)C2)cn2nc(NCc3cccc(Cl)c3)nc12 (single isomer, unassigned) [Example 4, {2-[(3-Chlorobenzyl)amino]-8-methoxy[1,2,4]triazolo[1,5-a]pyridin-6-yl}[5-(3-hydroxycyclobutyl)-2-methylmorpholin-4-yl]methanone]	9.4 nM	23 nM
COc1cc(C(=O)N2CC(C)(CCO)OC[C@H]2C)cn2nc(NCc3cccc(Cl)c3)nc12 (single isomer, unassigned) [Example 6]	8.7 nM	25 nM
COc1cc(C(=O)N2CC(C)(C)OCC2(C)CO)cn2nc(NCc3cccc(Cl)c3)nc12 (single isomer, unassigned) [Example 9, {2-[(3-Chlorobenzyl)amino]-8-methoxy[1,2,4]triazolo[1,5-a]pyridin-6-yl}[5-(hydroxymethyl)-2,2,5-trimethylmorpholin-4-yl]methanone]	55 nM	79 nM
COc1cc(C(=O)N2CC(C)(C)OCC2(C)CO)cn2nc(NCc3cccc(Cl)c3)nc12 (single isomer, unassigned) [Example 10, {2-[(3-Chlorobenzyl)amino]-8-methoxy[1,2,4]triazolo[1,5-a]pyridin-6-yl}[5-(hydroxymethyl)-2,2,5-trimethylmorpholin-4-yl]methanone]	39 nM	41 nM
COc1cc(C(=O)N2CC(C)(C)OCC2CF)cn2nc(NCc3cccc(Cl)c3)nc12 (single isomer, unassigned) [Example 14, {2-[(3-Chlorobenzyl)amino]-8-methoxy[1,2,4]triazolo[1,5-a]pyridin-6-yl}[5-(fluoromethyl)-2,2-dimethylmorpholin-4-yl]methanone]	24 nM	57 nM
COc1cc(C(=O)N2CC(C)OCC2CCO)cn2nc(NCc3cccc(Cl)c3)nc12 (single isomer, unassigned) [Example 16, {2-[(3-Chlorobenzyl)amino]-8-methoxy[1,2,4]triazolo[1,5-a]pyridin-6-yl}[5-(2-hydroxyethyl)-2-methylmorpholin-4-yl]methanone]	52 nM	77 nM
COc1cc(C(=O)N2CC(C)OCC2CCO)cn2nc(NCc3cccc(Cl)c3)nc12 (single isomer, unassigned) [Example 17, {2-[(3-Chlorobenzyl)amino]-8-methoxy[1,2,4]triazolo[1,5-a]pyridin-6-yl}[5-(2-hydroxyethyl)-2-methylmorpholin-4-yl]methanone]	95 nM	119 nM
COc1cc(C(=O)N2CC(C)OCC2CCO)cn2nc(NC(CF)c3cccc(Cl)c3)nc12 (single isomer, unassigned) [Example 18, (2-{[1-(3-Chlorophenyl)-2-fluoroethyl]amino}-8-methoxy[1,2,4]triazolo[1,5-a]pyridin-6-yl) [5-(2-hydroxyethyl)-2-methylmorpholin-4-yl]methanone]	27 nM	15 nM
COc1cc(C(=O)N2CC(C)OCC2CCO)cn2nc(NC(CF)c3cccc(Cl)c3)nc12 (single isomer, unassigned) [Example 19, (2-{[1-(3-Chlorophenyl)-2-fluoroethyl]amino}-8-methoxy[1,2,4]triazolo[1,5-a]pyridin-6-yl) [5-(2-hydroxyethyl)-2-methylmorpholin-4-yl]methanone]	11 nM	10 nM
COc1cc(C(=O)N2CC(C)OCC23CC(O)C3)cn2nc(NCc3cccc(Cl)c3)nc12 (single isomer, unassigned) [Example 20, {2-[(3-Chlorobenzyl)amino]-8-methoxy[1,2,4]triazolo[1,5-a]pyridin-6-yl}[(cis)-2-hydroxy-7-methyl-8-oxa-5-azaspiro[3.5]non-5-yl]methanone]	35 nM	70 nM
COc1cc(C(=O)N2CC(C)OCC23CC(O)C3)cn2nc(NCc3cccc(Cl)c3)nc12 (single isomer, unassigned) [Example 21, {2-[(3-Chlorobenzyl)amino]-8-methoxy[1,2,4]triazolo[1,5-a]pyridin-6-yl}[(trans)-2-hydroxy-7-methyl-8-oxa-5-azaspiro[3.5]non-5-yl]methanone]	43 nM	67 nM
COc1cc(C(=O)N2CC(C)OCC23CC(O)C3)cn2nc(NC(CF)c3cccc(Cl)c3)nc12 (single isomer, unassigned) [Example 22, (2-{[1-(3-Chlorophenyl)-2-fluoroethyl]amino}-8-methoxy[1,2,4]triazolo[1,5-a]pyridin-6-yl)[(cis)-2-hydroxy-7-methyl-8-oxa-5-azaspiro[3.5]non-5-yl]methanone]	26 nM	86 nM
COc1cc(C(=O)N2CC(C)OCC23CC(O)C3)cn2nc(NC(CF)c3cccc(Cl)c3)nc12 (single isomer, unassigned) [Example 23, (2-{[1-(3-Chlorophenyl)-2-fluoroethyl]amino}-8-methoxy[1,2,4]triazolo[1,5-a]pyridin-6-yl)[(cis)-2-hydroxy-7-methyl-8-oxa-5-azaspiro[3.5]non-5-yl]methanone]	29 nM	34 nM
COc1cc(C(=O)N2CC(C)OCC23CC(O)C3)cn2nc(NC(CF)c3cccc(Cl)c3)nc12 (single isomer, unassigned) [Example 24, (2-{[1-(3-Chlorophenyl)-2-fluoroethyl]amino}-8-methoxy[1,2,4]triazolo[1,5-a]pyridin-6-yl) [(trans)-2-hydroxy-7-methyl-8-oxa-5-azaspiro[3.5]non-5-yl]methanone]	9.9 nM	19 nM
COc1cc(C(=O)N2CC(C)OCC23CC(O)C3)cn2nc(NC(CF)c3cccc(Cl)c3)nc12 (single isomer, unassigned) [Example 25, (2-{[1-(3-Chlorophenyl)-2-fluoroethyl]amino}-8-methoxy[1,2,4]triazolo[1,5-a]pyridin-6-yl) [(trans)-2-hydroxy-7-methyl-8-oxa-5-azaspiro[3.5]non-5-yl]methanone]	28 nM	55 nM
COc1cc(C(=O)N2CC(C)OCC2(C)C)cn2nc(NCc3cccc(Cl)c3)nc12 (single isomer, unassigned) [Example 27]	62 nM	56 nM
COc1cc(C(=O)N2CC(C)OCC2(C)CO)cn2nc(NCc3cccc(Cl)c3)nc12 (single isomer, unassigned) [Example 29, {2-[(3-Chlorobenzyl)amino]-8-methoxy[1,2,4]triazolo[1,5-a]pyridin-6-yl}[5-(hydroxymethyl)-2,5-dimethylmorpholin-4-yl]methanone]	54 nM	67 nM
COc1cc(C(=O)N2CC(C)OCC2(C)CO)cn2nc(NCc3cccc(Cl)c3)nc12 (single isomer, unassigned) [Example 30, {2-[(3-Chlorobenzyl)amino]-8-methoxy[1,2,4]triazolo[1,5-a]pyridin-6-yl}[5-(hydroxymethyl)-2,5-dimethylmorpholin-4-yl]methanone]	45 nM	51 nM

— patent US20160108039A1, “TRIAZOLOPYRIDINES AS THROMBIN INHIBITORS FOR THE TREATMENT OF THROMBOEMBOLIC DISEASES” (BAYER PHARMA AKTIENGESELLSCHAFT, priority 2013, published 2016)
